Results published in patent publication US20260308158A1, “TARGETING RNAS ASSOCIATED WITH TAUOPATHIES WITH SMALL MOLECULES” (University of Florida Research Foundation, Incorporated, priority 2023, published 2026).

Key:
[1] = Plasma protein binding by equilibrium dialysis; type: in vitro ADME; details: 37° C., 6 h (2 at 5 μM), read-out: free fraction in plasma
Method: Plasma and brain binding. Plasma protein binding was determined by equilibrium dialysis using a Thermo Scientific™ RED Device per the manufacturer's protocol. Each sample was prepared by addition of 2 into 100 μL plasma with final concentration of 5 μM (0.1% (v/v) DMSO). 1×PBS was used as dialysis buffer and was added into the buffer chamber. The plate was incubated with shaking at 37° C. for 6 h. The concentration of 2 in the plasma and buffer compartments was determined as described in Quantitation of 2 in Mouse Plasma and Brain. The free fraction was calculated as [buffer]/[plasma].

[2] = system: MAPT exon 10 splicing in primary neurons from htau mice; assay: 4R/3R MAPT mRNA by RT-qPCR in primary neurons from htau mice; type: cell-based, human MAPT in htau transgenic mouse neurons; details: 48 h
Method: (§1) RNA Isolation and Real-Time Quantitative PCR (RT-qPCR). HeLa cells were treated as described in the Luciferase Reporter assay to Study Exon 10 Alternative Splicing. LAN5 cells were seeded in 12-well plates at 0.2×10^6 cells per well, treated with compound or ASO, and incubated for 48 h. Compound stocks prepared in DMSO and ASO stocks prepared in water were diluted in growth medium and added to cells. Total RNA was extracted from cells and analyzed via RT-qPCR to determine levels of 3R and 4R tau mRNA. In brief, the cells were washed with 1×DPBS and then lysed in the well using 300 μL of Lysis Buffer provided in a Quick-RNA MiniPrep kit (Zymo Research), which was used to extract total RNA per the manufacturer's protocol including the on-column DNase I digestion. The concentration of total RNA was measured by NanoDrop 2000 (Thermo Fisher Scientific). Only samples with OD260/OD280>1.8 were carried forward for analysis. Reverse transcription (RT) was carried out on 200 ng of total RNA using a qScript cDNA synthesis kit (QuantaBio) in a total volume of 10 μL according to the manufacturer's protocol. An Applied Biosystems QS5 384-well PCR system was used to complete qPCR reactions with Power SYBR Green Master Mix (Life Technologies), 600 nM each primer (Table S3), 20 ng of cDNA (1 μL of the RT reaction), in a total volume of 33 μL. Technical triplicates (10 μL each) were aliquoted into 384-well qPCR plates (Applied biosystems, 4483285). Subsequent qPCR analysis was performed using an Applied Biosystems QS5 384-well PCR system (software v.1.3.0). 4R/3R ratio were analyzed using ΔΔCt method using Equation 2: […]
Isolation and Treatment of Primary Neurons from Humanized tau (hTau) Transgenic Mice. All animal studies were completed as approved by the Scripps Florida Institutional Animal Care and Use Committee. […]

[3] = system: DDPAC I17T MAPT mini-gene (exon 10 splicing); assay: 4R/3R MAPT mRNA by RT-qPCR, HeLa cells transfected with DDPAC I17T mini-gene; type: cell-based; details: ASO 0.5 μM
Method: as §1
(§2) where ΔCt 4R or ΔCt 3R is the difference between the Ct values for the 4R or 3R MAPT mRNA and a housekeeping gene (18S rRNA) in total RNA from cells.

LAN5 transcriptome = assay: RNA-seq transcriptome-wide selectivity in LAN5 cells; type: cell-based, human
Method: RNA-Seq. LAN5 cells in 12-well plate (~60% confluency) were treated with 2 (1.5 μM), 0.1% (v/v) DMSO (vehicle), 4R-to-3R tau ASO (0.5 μM), or scrambled ASO (0.5 μM) for 48 h. Total RNA was extracted using an RNeasy Mini Kit (Qiagen) per the manufacturer's protocol. Next, rRNA was depleted using NEBNext rRNA depletion modules (E6310L, New England Biosciences) and prepared with NEBNext Ultra II Dir RNA Lib Prep Kit (E7760S, New England Biosciences) according to the manufacturer's protocol. The prepared libraries were processed with NextSeq 500/550 High Output Kit v2.5 (Illumina, 20024907) per the manufacturer's protocol and then sequenced on a NextSeq 500. After sequencing, the BCL files were converted to FASTQ files using basemount/0.12.8.1516 and bcl2fastq/2.17.1.14.^33 The sequencing depth was over 82 million for each sample.
FastQC^34 and RSeQC^35 were used to determine the quality of reads and any overrepresentation of sequences. HISAT2^36 was used to map the reads to the reference human genome (hg19), and the output SAM files were converted to BAM files and sorted by index. Kallisto^37 and NCBI reference sequences (RefSeq)^38 were used for gene quantification to calculate transcripts per million (TPM). Differentially expressed genes were detected with Sleuth^39 and determined by a multiple test corrected p-value<0.05. Splicing event PSI values were quantitated using MISO.^40

[4] = system: MAPT exon 10 splicing in LAN5 cells; assay: 4R/3R endogenous MAPT mRNA by RT-qPCR in LAN5 neuroblastoma cells; type: cell-based; details: for PSI10 in all cell lines: ASO, all cell lines of FIGS. 12A-12C (LAN5, HeLa mini-genes, htau primary neurons)
Method: as §1, §2

[5] = system: WT I17T MAPT mini-gene (exon 10 splicing); assay: 4R/3R MAPT mRNA by RT-qPCR, HeLa cells transfected with WT I17T mini-gene; type: cell-based; details: ASO 0.5 μM
Method: as §1, §2

## NC(=O)N1c2ccccc2C=Cc2ccccc21 [Carbamazepine, reference compound]
[1]
  fraction unbound at 6 h: 0.377 ± 0.042

## tau ASO: Vivo-Morpholino antisense oligonucleotide targeting the MAPT exon-10-intron junction hairpin, 5′-TGAAGGTACTCACACTGCCGC-3′ (SEQ ID NO: 1) (all phosphorodiamidate morpholino (PMO); Vivo-Morpholino: morpholino with attached delivery moiety, further chemistry not fully specified) [reference compound]
[2]
  4R/3R ratio and PSI10: dose dependent reduction
[3]
  effect on 4R/3R ratio: altered the 4R/3R ratio
LAN5 transcriptome; 2 at 1.5 μM or ASO 0.5 μM
  expression of MAPT gene: Neither 2 nor the ASO altered the expression of MAPT gene
LAN5 transcriptome; 2 at 1.5 μM or tau ASO 0.5 μM
  alternative splicing of MAPT exons (exon 10): only one significantly reduced
LAN5 transcriptome; tau ASO 0.5 μM, 48 h
  genes unchanged, percent: 99.97%
[4]; ASO 0.5 μM, LAN5, 48 h
  reduction of 4R/3R MAPT ratio: ~ 82%
[4]
  PSI10 in all cell lines: also downregulated in all cell lines
[5]
  effect on 4R/3R ratio: altered the 4R/3R ratio

## scrambled ASO: scrambled ASO 5′-CTGTCTGACGTTCTTTGT-3′ (SEQ ID NO: 2), negative control (chemistry not given here) [reference compound]
[3]
  effect on 4R/3R ratio: not scrambled ASO altered the 4R/3R ratio
[4]
  PSI10 in all cell lines: not scrambled ASO was also downregulated
[5]
  effect on 4R/3R ratio: not scrambled ASO altered the 4R/3R ratio
